Some test systems named below: OVCAR-4; HCT-116; IGROV-1; NCI/ADR-RES; HOP-92; 786-0; MDA-MB-231; RXF 393; COLO 205; BT-549; CCRF-CEM; UO-31; MDA-MB-435; SW-620; KM12; SNB-75; U-251; T47D; NCI-H522; HCT-15.
Common to all, as to assay: NCI-60 cell line screen, 48 h

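Protocol summary: plate cells (96-well), add compound at 5 concentrations, incubate 48 h, interpolate endpoints linearly. Here, GI50 denotes the concentration required for 50% inhibition of growth.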 Calls of active or inactive are those of the source. Rule as the data show it: active = GI50 up to about 1.1 µM and inactive = higher.

Consider `CCc1ccccc1NNc1cc(=O)[nH]c(=O)[nH]1`, for which the GI50 is 20.3 µM (inactive) with OVCAR-4; 16.7 µM (inactive) in the experiment with HCT-116; 19.5 µM (inactive) with IGROV-1; 13.3 µM (inactive) with NCI/ADR-RES; 16.6 µM (inactive) in the experiment with HOP-92; 16.6 µM (inactive) in the experiment on 786-0. Besides, the GI50 in the experiment with MDA-MB-231 was 17.5 µM (inactive); in the experiment with RXF 393 it was 22.2 µM (inactive); in the experiment on COLO 205, 18 µM (inactive); in the experiment on BT-549, 19.4 µM (inactive); in the experiment on CCRF-CEM, 26.5 µM (inactive); in the experiment with UO-31, 17.2 µM (inactive). Further, the GI50 is 19.1 µM (inactive) in the experiment on MDA-MB-435; 18.6 µM (inactive) with SW-620; 17.3 µM (inactive) in the experiment on KM12; 17.7 µM (inactive) with SNB-75; 17.4 µM (inactive) in the experiment on U-251; 17.9 µM (inactive) with T47D.

Take `Cc1ccc(-c2nc(C)c(C(=O)Nc3ccc(Cl)cc3)s2)cc1`: the GI50 in the experiment on OVCAR-4 is 18.3 µM (inactive); in the experiment with HCT-116, 18.5 µM (inactive); in the experiment with IGROV-1 it was 29.2 µM (inactive); in the experiment on NCI/ADR-RES, 29.2 µM (inactive); in the experiment on HOP-92, 23.5 µM (inactive); with 786-0, 15.2 µM (inactive). Also, the GI50 in the experiment with MDA-MB-231 is 30.3 µM (inactive); in the experiment with COLO 205, > 100 µM (inactive); with NCI-H522, 30.5 µM (inactive); in the experiment with BT-549, 13.9 µM (inactive); with CCRF-CEM it was > 100 µM (inactive); in the experiment with HCT-15, more than 100 µM. Further, the GI50 in the experiment on UO-31 is 18.8 µM (inactive); with MDA-MB-435 it was > 100 µM (inactive); with SW-620, 41.7 µM (inactive); with KM12 it was > 100 µM (inactive); in the experiment on SNB-75 it was 15.1 µM (inactive); in the experiment with U-251, 22.1 µM (inactive). Also, the GI50 in the experiment on T47D was > 100 µM (inactive).

Turning to `Cc1[nH]c2ncn3nc(C(Cl)(Cl)Cl)nc3c2c1Cc1ccccc1`, the GI50 with OVCAR-4, in the experiment on HCT-116, with IGROV-1, with NCI/ADR-RES, with 786-0 and in the experiment with MDA-MB-231 was > 100 µM (inactive) in each case. Also, the GI50 in the experiment with RXF 393 was > 100 µM (inactive); in the experiment on COLO 205, > 100 µM (inactive); in the experiment with NCI-H522 it was > 100 µM (inactive); in the experiment on BT-549, > 100 µM (inactive); with CCRF-CEM, > 100 µM (inactive); in the experiment with HCT-15, more than 100 µM. Also, the GI50 with UO-31 was 10.5 µM (inactive); in the experiment on MDA-MB-435, > 100 µM (inactive); with SW-620, > 100 µM (inactive); in the experiment with KM12, > 100 µM (inactive); in the experiment with SNB-75, > 100 µM (inactive); in the experiment on U-251 it was > 100 µM (inactive). In addition, in the experiment with T47D, the GI50 is > 100 µM (inactive).

Regarding `COc1ccc2oc(=N)c(C(N)=O)cc2c1`, the GI50 in the experiment with OVCAR-4 is 48.1 µM (inactive); in the experiment with HCT-116, 50.9 µM (inactive); in the experiment on IGROV-1 it was 30.5 µM (inactive); in the experiment with NCI/ADR-RES, 53.3 µM (inactive); in the experiment with HOP-92, > 100 µM (inactive); with 786-0, 53.5 µM (inactive). For the same compound, the GI50 in the experiment on MDA-MB-231 was 66.8 µM (inactive); with RXF 393, > 100 µM (inactive); in the experiment on COLO 205, 49 µM (inactive); with BT-549, 57.7 µM (inactive); in the experiment on CCRF-CEM, 33.2 µM (inactive); in the experiment with HCT-15, 53.1 µM. Besides, the GI50 is 49.4 µM (inactive) with MDA-MB-435; 94.8 µM (inactive) in the experiment with SW-620; 31.5 µM (inactive) in the experiment on KM12; 30.1 µM (inactive) with SNB-75; > 100 µM (inactive) in the experiment with U-251; 32 µM (inactive) with T47D.

For the compound `COc1ccc(S(=O)(=O)NC(CCC(=O)NN)C(=O)NN)cc1` (stereo not drawn), the GI50 with OVCAR-4, in the experiment with HCT-116, in the experiment on IGROV-1, in the experiment on NCI/ADR-RES, in the experiment with HOP-92 and in the experiment with 786-0 was > 100 µM (inactive) in each case. The GI50 is > 100 µM (inactive) in the experiment on MDA-MB-231; > 100 µM (inactive) with COLO 205; > 100 µM (inactive) with NCI-H522; > 100 µM (inactive) in the experiment on BT-549; > 100 µM (inactive) in the experiment with CCRF-CEM; more than 100 µM in the experiment with HCT-15. Further, the GI50 with UO-31, in the experiment with MDA-MB-435, in the experiment on SW-620, in the experiment on KM12, in the experiment with SNB-75 and with U-251 was > 100 µM (inactive) throughout. Besides, the GI50 with T47D was > 100 µM (inactive).

Consider `O=C(O)CCC/N=C(\C(=N\CCCC(=O)O)c1ccccc1)c1ccccc1`, for which the GI50 in the experiment with OVCAR-4, in the experiment with HCT-116, in the experiment with IGROV-1, in the experiment on NCI/ADR-RES, in the experiment on 786-0 and with MDA-MB-231 was > 100 µM (inactive) throughout. For the same compound, the GI50 is > 100 µM (inactive) with RXF 393; > 100 µM (inactive) with COLO 205; > 100 µM (inactive) in the experiment with BT-549; more than 100 µM in the experiment on HCT-15; > 100 µM (inactive) in the experiment with UO-31; > 100 µM (inactive) with MDA-MB-435. In addition, the GI50 with SW-620, in the experiment with KM12, in the experiment on SNB-75, in the experiment with U-251 and in the experiment with T47D was > 100 µM (inactive) in each case.

For `CO/N=C1\CCC2(O)C3Cc4ccc(O)c5c4C2(CCN3CC2CC2)[C@H]1O5` (stereo partly drawn), the GI50 in the experiment on OVCAR-4, in the experiment on HCT-116, in the experiment with IGROV-1, in the experiment with NCI/ADR-RES, with HOP-92 and with 786-0 was > 100 µM (inactive) each time. Further, the GI50 was > 100 µM (inactive) in the experiment with MDA-MB-231; > 100 µM (inactive) with COLO 205; > 100 µM (inactive) in the experiment on NCI-H522; > 100 µM (inactive) in the experiment with BT-549; > 100 µM (inactive) in the experiment with CCRF-CEM; more than 100 µM in the experiment on HCT-15. Moreover, the GI50 in the experiment on UO-31, in the experiment with MDA-MB-435, in the experiment on SW-620, in the experiment on KM12, in the experiment on U-251 and in the experiment with T47D was > 100 µM (inactive) in each case.

As for `O=C(N/N=C/C=C/c1ccccc1)c1ccccc1Nc1ccccc1C(=O)N/N=C/C=C/c1ccccc1`, the GI50 in the experiment on OVCAR-4 was 67.9 µM (inactive); in the experiment on HCT-116 it was 90.8 µM (inactive); in the experiment with IGROV-1 it was > 100 µM (inactive); in the experiment on NCI/ADR-RES, > 100 µM (inactive); in the experiment with HOP-92, 67 µM (inactive); in the experiment with 786-0 it was > 100 µM (inactive). The GI50 in the experiment with MDA-MB-231 was 49.5 µM (inactive); with RXF 393, 20.5 µM (inactive); in the experiment on COLO 205, > 100 µM (inactive); with BT-549, > 100 µM (inactive); in the experiment with CCRF-CEM it was 12.5 µM (inactive); in the experiment with HCT-15, more than 100 µM. The GI50 in the experiment on UO-31 was > 100 µM (inactive); in the experiment on MDA-MB-435 it was > 100 µM (inactive); with SW-620, > 100 µM (inactive); in the experiment with KM12 it was > 100 µM (inactive); in the experiment with SNB-75 it was 21.4 µM (inactive); in the experiment with U-251, 20.8 µM (inactive). In the experiment on T47D, the GI50 is > 100 µM (inactive).

Take `CCOC(=O)CCc1cccc2c1oc1c(CCNC(=O)OCC3c4ccccc4-c4ccccc43)cccc12`: the GI50 in the experiment with OVCAR-4 was > 100 µM (inactive); in the experiment with HCT-116 it was 79.3 µM (inactive); in the experiment with IGROV-1 it was 21.3 µM (inactive); in the experiment on NCI/ADR-RES, 58.6 µM (inactive); with HOP-92, 23.1 µM (inactive); in the experiment with 786-0, 37.2 µM (inactive). The GI50 in the experiment on MDA-MB-231 is 16.2 µM (inactive); with COLO 205, 34.5 µM (inactive); in the experiment with NCI-H522, 37.9 µM (inactive); with BT-549 it was 22.5 µM (inactive); in the experiment on CCRF-CEM, > 100 µM (inactive); with HCT-15, more than 100 µM. Moreover, the GI50 is 34.9 µM (inactive) in the experiment on UO-31; > 100 µM (inactive) in the experiment with MDA-MB-435; > 100 µM (inactive) in the experiment with SW-620; > 100 µM (inactive) in the experiment with KM12; 13.1 µM (inactive) in the experiment on SNB-75; 57.3 µM (inactive) with U-251. Also, in the experiment with T47D, the GI50 was 22.8 µM (inactive).

Consider `S=C1CC(c2ccccc2)Sc2ccccc2N1` (stereo not drawn), for which the GI50 is 49.2 µM (inactive) in the experiment with OVCAR-4; 37 µM (inactive) in the experiment on HCT-116; > 100 µM (inactive) in the experiment with IGROV-1; 68.9 µM (inactive) with NCI/ADR-RES; > 10 µM (inactive) in the experiment with 786-0; 45.2 µM (inactive) with MDA-MB-231. Moreover, the GI50 in the experiment on RXF 393 was 28.4 µM (inactive); in the experiment with COLO 205, > 100 µM (inactive); in the experiment on NCI-H522, 31.3 µM (inactive); with BT-549, 53 µM (inactive); in the experiment on CCRF-CEM it was > 100 µM (inactive); in the experiment with HCT-15, 93.3 µM. Moreover, the GI50 is > 100 µM (inactive) with UO-31; 61.1 µM (inactive) with MDA-MB-435; 95.3 µM (inactive) with KM12; 20.9 µM (inactive) in the experiment on SNB-75; 44.2 µM (inactive) in the experiment on U-251; > 100 µM (inactive) in the experiment with T47D.

With `CCOC(=O)CN1CC(C2=C(O)CN(CC(=O)OCC)C2=O)=CC1=O`, the GI50 with OVCAR-4, with HCT-116, in the experiment on IGROV-1, in the experiment on NCI/ADR-RES, with HOP-92 and in the experiment with 786-0 was > 100 µM (inactive) throughout. The GI50 in the experiment on MDA-MB-231 is > 100 µM (inactive); with COLO 205 it was > 100 µM (inactive); with NCI-H522, > 100 µM (inactive); in the experiment with BT-549, > 100 µM (inactive); in the experiment with CCRF-CEM, > 100 µM (inactive); with HCT-15 it was more than 100 µM. Moreover, the GI50 in the experiment on UO-31, with MDA-MB-435, in the experiment on SW-620, in the experiment with KM12, in the experiment with SNB-75 and in the experiment on U-251 was > 100 µM (inactive) each time. Also, the GI50 in the experiment with T47D was > 100 µM (inactive).

(Values after ChEMBL document CHEMBL1201862, “PubChem BioAssay data set” (2004).)
